For this test, the target named is PIM1 (Homo sapiens (Human), UniProt P11309). In words: biochemical. The test is classed as biochemical. To be noted: 20 pM PIM1, 1 μM FAM-peptide, 10 μM ATP, 90 minutes at room temperature; read-out: PIM1 LC3K (KI).

This note sets out measurements from US9328106B2, “Cyclic ether pyrazol-4-yl-heterocyclyl-carboxamide compounds and methods of use” (Genentech, Inc., priority 2012, dated 2016).

Chain of PIM1 (P11309 whole entry): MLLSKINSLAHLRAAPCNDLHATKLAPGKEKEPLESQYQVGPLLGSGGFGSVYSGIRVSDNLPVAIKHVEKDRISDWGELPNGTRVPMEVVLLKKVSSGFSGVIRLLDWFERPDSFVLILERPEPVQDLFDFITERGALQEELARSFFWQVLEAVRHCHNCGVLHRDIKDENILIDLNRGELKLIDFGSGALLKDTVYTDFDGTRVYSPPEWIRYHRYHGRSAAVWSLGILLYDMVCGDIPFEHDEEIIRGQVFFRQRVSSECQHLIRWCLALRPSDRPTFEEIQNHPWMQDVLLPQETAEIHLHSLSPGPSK

For orientation: Ki means the dissociation constant of the complex between target and ligand, obtained from inhibition or displacement. Take `CC(O)c1cc(F)c(-c2nc(C(=O)Nc3cnn(C)c3[C@@H]3CC[C@@H](N)[C@@H](F)CO3)ccc2F)c(F)c1` (stereo partly drawn) [Example 210, N-(5-((2S,5R,6R)-5-amino-6-fluorooxepan-2-yl)-1-methyl-1H-pyrazol-4-yl)-6-(2,6-difluoro-4-(1-hydroxyethyl)phenyl)-5-fluoropicolinamide]: the Ki came out at 0.053 nM.

Regarding `C[C@H]1O[C@@H](c2c(NC(=O)c3nc(-c4c(F)cccc4F)sc3N)cnn2C)CC(F)(F)[C@@]1(C)N` (stereo in doubt) [Example 179, 5-Amino-N-[5-[5-amino-4,4-difluoro-5,6-dimethyl-tetrahydropyran-2-yl]-1-methyl-pyrazol-4-yl]-2-(2,6-difluorophenyl)thiazole-4-carboxamide], the Ki worked out at 0.456 nM.

As to `Cn1ncc(NC(=O)c2nc(-c3c(F)cccc3F)sc2N)c1C1OCC(CO)CO1` (stereo not drawn) [Example 165, 5-Amino-2-(2,6-difluorophenyl)-N-[5-[5-(hydroxymethyl)-1,3-dioxan-2-yl]-1-methyl-pyrazol-4-yl]thiazole-4-carboxamide], the Ki was 0.647 nM.

Turning to `Cn1ncc(NC(=O)c2nc(-c3c(F)cccc3F)sc2N)c1[C@@H]1C[C@H](N)CCO1` [Example 160, 5-Amino-N-[5-[(2S,4R)-4-aminotetrahydropyran-2-yl]-1-methyl-pyrazol-4-yl]-2-(2,6-difluorophenyl)thiazole-4-carboxamide], the Ki came out at 0.248 nM.

For the compound `Cn1ncc(NC(=O)c2csc(-c3c(F)cncc3F)n2)c1[C@@H]1CC[C@@H](N)[C@@H](F)CO1` [Example 247, N-(5-((2S,5R,6R)-5-amino-6-fluorooxepan-2-yl)-1-methyl-1H-pyrazol-4-yl)-2-(3,5-difluoropyridin-4-yl)thiazole-4-carboxamide], the Ki was 0.112 nM.

`Cn1ncc(NC(=O)c2nc(-c3ccccc3OC(F)(F)F)sc2N)c1[C@@H]1CC[C@@H](N)[C@@H](F)CO1` [Example 266, 5-amino-N-(5-((2S,5R,6R)-5-amino-6-fluorooxepan-2-yl)-1-methyl-1H-pyrazol-4-yl)-2-(2-(trifluoromethoxy)phenyl)thiazole-4-carboxamide]: the Ki came out at 0.155 nM.

In the case of `Cn1ncc(NC(=O)c2nc(C3=CCCC3)sc2N)c1[C@@H]1CC[C@@H](N)[C@@H](F)CO1` [Example 271, 5-amino-N-(5-((2S,5R,6R)-5-amino-6-fluorooxepan-2-yl)-1-methyl-1H-pyrazol-4-yl)-2-(cyclopent-1-en-1-yl)thiazole-4-carboxamide], the Ki worked out at 0.062 nM.

Take `Cn1ncc(NC(=O)c2nc(-c3c(F)cccc3F)sc2N)c1[C@H]1OC[C@H](CN)CO1` [Example 167, 5-Amino-N-[5-[5-(aminomethyl)-1,3-dioxan-2-yl]-1-methyl-pyrazol-4-yl]-2-(2,6-difluorophenyl)thiazole-4-carboxamide]: the Ki was 0.029 nM.

Consider `CO[C@H]1CO[C@H](c2c(NC(=O)c3nc(-c4cccc(F)c4F)sc3N)cnn2C)CC[C@H]1N` [Example 219, 5-amino-N-(5-((2S,5R,6R)-5-amino-6-methoxyoxepan-2-yl)-1-methyl-1H-pyrazol-4-yl)-2-(2,3-difluorophenyl)thiazole-4-carboxamide], for which the Ki came out at 0.05 nM.

For the compound `CC1C(c2c(NC(=O)c3nc(-c4c(F)cccc4F)sc3N)cnn2C)OCC(C)(O)C1N` (stereo not drawn) [Example 142, 5-amino-N-[5-(4-amino-5-hydroxy-3,5-dimethyl-tetrahydropyran-2-yl)-1-methyl-pyrazol-4-yl]-2-(2,6-difluorophenyl)thiazole-4-carboxamide], the Ki stood at 0.441 nM.

Consider `Cn1ncc(NC(=O)c2csc(-c3cc(Br)ccc3F)n2)c1[C@@H]1CC[C@@H](N)[C@H](F)CO1` [Example 299, N-(5-((2S,5R,6S)-5-amino-6-fluorooxepan-2-yl)-1-methyl-1H-pyrazol-4-yl)-2-(5-bromo-2-fluorophenyl)thiazole-4-carboxamide], for which the Ki turned out to be 0.023 nM.

For the compound `Cn1ncc(NC(=O)c2csc(-c3ccccc3C(F)F)n2)c1[C@@H]1CC[C@@H](N)[C@H](F)CO1` [Example 298, N-(5-((2S,5R,6S)-5-amino-6-fluorooxepan-2-yl)-1-methyl-1H-pyrazol-4-yl)-2-(2-(difluoromethyl)phenyl)thiazole-4-carboxamide], the Ki turned out to be 0.783 nM.

With `Cc1c(-c2nc(C(=O)Nc3cnn(C)c3[C@@H]3CC[C@@H](N)[C@H](F)CO3)cs2)cnn1C` [Example 242, N-(5-((2S,5R,6S)-5-amino-6-fluorooxepan-2-yl)-1-methyl-1H-pyrazol-4-yl)-2-(1,5-dimethyl-1H-pyrazol-4-yl)thiazole-4-carboxamide], the Ki stood at 0.218 nM.

For `COCCOc1cc(F)c(-c2nc(C(=O)Nc3cnn(C)c3[C@@H]3CC[C@@H](N)[C@H](F)CO3)ccc2F)c(F)c1` [Example 192, N-(5-((2S,5R,6S)-5-amino-6-fluorooxepan-2-yl)-1-methyl-1H-pyrazol-4-yl)-6-(2,6-difluoro-4-(2-methoxyethoxy)phenyl)-5-fluoropicolinamide], the Ki is 0.023 nM.

On to `Cc1noc(C)c1-c1nc(C(=O)Nc2cnn(C)c2[C@@H]2CC[C@@H](N)[C@@H](F)CO2)cs1` [Example 244, N-(5-((2S,5R,6R)-5-amino-6-fluorooxepan-2-yl)-1-methyl-1H-pyrazol-4-yl)-2-(3,5-dimethylisoxazol-4-yl)thiazole-4-carboxamide], for which the Ki is 5.98 nM.

For the compound `Cn1ncc(NC(=O)c2csc(-c3c(F)cc(C4(O)CCC4)cc3F)n2)c1[C@@H]1CC[C@@H](N)[C@H](F)CO1` [Example 295, N-(5-((2S,5R,6S)-5-amino-6-fluorooxepan-2-yl)-1-methyl-1H-pyrazol-4-yl)-2-(2,6-difluoro-4-(1-hydroxycyclobutyl)phenyl)thiazole-4-carboxamide], the Ki turned out to be 0.027 nM.

As for `Cn1ncc(NC(=O)c2nc(-c3c(F)cccc3F)sc2N)c1[C@H]1OC[C@](C)(CN)CO1` [Example 175, 5-Amino-N-[5-[5-(aminomethyl)-5-methyl-1,3-dioxan-2-yl]-1-methyl-pyrazol-4-yl]-2-(2,6-difluorophenyl)thiazole-4-carboxamide], the inhibition constant Ki was 0.036 nM.

As to `Cn1ncc(NC(=O)c2csc(-c3cccc(F)c3Cl)n2)c1[C@@H]1CC[C@@H](N)[C@H](F)CO1` [Example 309, N-(5-((2S,5R,6S)-5-amino-6-fluorooxepan-2-yl)-1-methyl-1H-pyrazol-4-yl)-2-(2-chloro-3-fluorophenyl)thiazole-4-carboxamide], the Ki worked out at 0.274 nM.

Turning to `CO[C@H]1CO[C@H](c2c(NC(=O)c3csc(-c4c(F)cccc4F)n3)cnn2C)CC[C@H]1N` [Example 221, N-(5-((2S,5R,6R)-5-amino-6-methoxyoxepan-2-yl)-1-methyl-1H-pyrazol-4-yl)-2-(2,6-difluorophenyl)thiazole-4-carboxamide], the Ki is 0.066 nM.

As to `Cn1ncc(NC(=O)c2csc(-c3c(F)cccc3CO)n2)c1[C@@H]1CC[C@@H](N)[C@H](F)CO1` [Example 382, N-[5-[(2S,5R,6S)-5-amino-6-fluoro-oxepan-2-yl]-1-methyl-pyrazol-4-yl]-2-[2-fluoro-6-(hydroxymethyl)phenyl]thiazole-4-carboxamide], the Ki was found to be 7.2 nM.

Consider `Cn1ncc(NC(=O)c2nc(-c3c(F)cccc3F)sc2N)c1C1CCCCO1` (stereo not drawn) [Example 104, 5-amino-2-(2,6-difluorophenyl)-N-(1-methyl-5-tetrahydropyran-2-yl-pyrazol-4-yl)thiazole-4-carboxamide], for which the inhibition constant Ki is 0.424 nM.
